The first assay has as its target T1, hT1R2/hT1R3 sweet receptor (Homo sapiens, UniProt Q7RTX0+Q8TE23).
T1 construct: expressed in transfected cells; host or cells: HEK293 derivative stably expressing Gα15, clone S-9
T1 sequence (Q8TE23 20-839): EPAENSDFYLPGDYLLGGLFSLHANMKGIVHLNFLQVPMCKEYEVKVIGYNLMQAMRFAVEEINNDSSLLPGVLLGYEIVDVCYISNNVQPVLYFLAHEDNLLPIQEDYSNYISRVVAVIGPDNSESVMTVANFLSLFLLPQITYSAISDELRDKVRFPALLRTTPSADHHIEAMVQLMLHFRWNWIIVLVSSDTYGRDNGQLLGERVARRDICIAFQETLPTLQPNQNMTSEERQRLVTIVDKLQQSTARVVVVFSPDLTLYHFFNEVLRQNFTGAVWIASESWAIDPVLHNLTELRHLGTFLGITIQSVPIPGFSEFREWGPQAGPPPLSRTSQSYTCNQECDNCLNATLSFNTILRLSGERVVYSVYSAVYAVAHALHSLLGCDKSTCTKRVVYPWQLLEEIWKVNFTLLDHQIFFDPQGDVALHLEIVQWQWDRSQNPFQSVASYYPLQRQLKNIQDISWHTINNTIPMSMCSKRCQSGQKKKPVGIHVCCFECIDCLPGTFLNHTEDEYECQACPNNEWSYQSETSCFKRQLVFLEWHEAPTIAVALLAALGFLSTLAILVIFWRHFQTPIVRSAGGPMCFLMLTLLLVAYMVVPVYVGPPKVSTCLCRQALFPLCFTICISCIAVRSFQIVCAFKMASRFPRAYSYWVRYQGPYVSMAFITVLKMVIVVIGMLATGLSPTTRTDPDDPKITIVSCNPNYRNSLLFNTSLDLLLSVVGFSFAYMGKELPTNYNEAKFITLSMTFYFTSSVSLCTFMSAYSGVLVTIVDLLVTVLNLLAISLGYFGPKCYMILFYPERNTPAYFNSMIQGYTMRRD
T1 sequence (Q7RTX0 21-852): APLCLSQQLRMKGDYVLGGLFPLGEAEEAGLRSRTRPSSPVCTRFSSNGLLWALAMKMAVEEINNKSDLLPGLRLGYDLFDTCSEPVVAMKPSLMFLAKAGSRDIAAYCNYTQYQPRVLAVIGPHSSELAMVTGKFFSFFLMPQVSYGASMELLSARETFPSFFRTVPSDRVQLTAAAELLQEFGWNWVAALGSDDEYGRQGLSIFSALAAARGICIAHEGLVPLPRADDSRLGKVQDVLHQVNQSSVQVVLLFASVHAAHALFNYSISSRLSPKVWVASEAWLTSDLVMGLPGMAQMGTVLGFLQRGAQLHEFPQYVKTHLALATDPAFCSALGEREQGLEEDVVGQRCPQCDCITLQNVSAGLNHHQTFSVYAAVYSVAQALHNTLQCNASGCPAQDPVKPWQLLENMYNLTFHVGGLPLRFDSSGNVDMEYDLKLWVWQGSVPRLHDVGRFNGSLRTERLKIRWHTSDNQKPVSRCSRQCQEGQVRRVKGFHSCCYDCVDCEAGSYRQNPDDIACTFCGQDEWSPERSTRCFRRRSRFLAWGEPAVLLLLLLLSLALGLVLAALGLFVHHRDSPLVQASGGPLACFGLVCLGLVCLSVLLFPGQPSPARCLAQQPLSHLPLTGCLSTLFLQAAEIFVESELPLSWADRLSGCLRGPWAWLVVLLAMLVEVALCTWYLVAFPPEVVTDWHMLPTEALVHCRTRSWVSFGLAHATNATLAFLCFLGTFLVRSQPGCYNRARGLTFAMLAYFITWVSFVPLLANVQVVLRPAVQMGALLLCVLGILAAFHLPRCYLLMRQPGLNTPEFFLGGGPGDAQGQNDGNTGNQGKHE
Briefly: In vitro hT1R2/hT1R3 sweet taste receptor activation assay (FLIPR, dose response). The class given is cell-based. As to conditions: Table E, Sweet Enhancer Amides; read-out: Sweet EC50. The method in brief: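 S-9 cells expressing hT1R2/hT1R3, loaded with 4 µM Fluo-3AM 1 h at room temperature. Calcium response on FLIPR at room temperature in D-PBS, with 10 concentrations from 60 nM to 30 µM in duplicate.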
With `CC1CCC(NC(=O)c2cccc(Cl)c2O)c2ccccc21` (centres unmarked) [Example E4, 3-chloro-2-hydroxy-N-(4-methyl-1,2,3,4-tetrahydronaphthalen-1-yl)benzamide], the EC50 was 1.61 µM.

In the case of `CC1CCCC(NC(=O)c2cc(F)ccc2F)C1C` (centres unmarked) [Example E77, N-(2,3-dimethylcyclohexyl)-2,5-difluorobenzamide], the EC50 stood at 4.11 µM. On to `Cc1c(Cl)cccc1C(=O)NC1CCCCC1C` (centres unmarked) [Example E80, 3-chloro-2-methyl-N-(2-methylcyclohexyl)benzamide], for which the EC50 was 4.29 µM.

Consider `COc1c(Cl)cc(Cl)c(OC)c1C(=O)NC1CCCCC1C` (centres unmarked) [Example E35, 3,5-dichloro-2,6-dimethoxy-N-(2-methylcyclohexyl)benzamide], for which the EC50 stood at 0.71 µM. Same read-out and setting: then `O=C(Nc1ccc(F)cc1F)c1cc(Cl)ccc1O` [Example E89, 5-Chloro-N-(2,4-difluoro-phenyl)-2-hydroxy-benzamide], with 2.56 µM. On the same count and under the same terms, then `O=C(N[C@@H]1CCCc2ccccc21)c1cccc(F)c1` [Example E23, (R)-3-fluoro-N-(1,2,3,4-tetrahydronaphthalen-1-yl)benzamide], with 4.86 µM; and `N#Cc1c(F)cccc1NC(=O)c1ccc(Cl)cc1Cl` [Example E90, 2,4-Dichloro-N-(2-cyano-3-fluoro-phenyl)-benzamide], with 2.71 µM.

As for `Cc1c(F)c(F)c(C(=O)NC2CCCC2)c(F)c1F` [Example E58, N-cyclopentyl-2,3,5,6-tetrafluoro-4-methylbenzamide], the EC50 stood at 2.23 µM. As for `CC(C)(C)c1csc(NC(=O)c2ccncc2)n1` [Example E96, N-(4-tert-Butyl-thiazol-2-yl)-isonicotinamide], the EC50 amounted to 3.73 µM. As for `Cc1cc(C)c(C(=O)NC2CCCC(C)C2C)c(C)c1` (centres unmarked) [Example E50, N-(2,3-dimethylcyclohexyl)-2,4,6-trimethylbenzamide], the EC50 came out at 1.41 µM.

As to `CC(C)C(NC(=O)c1c(O)cccc1O)C(C)C` [Example E79, N-(2,4-dimethylpentan-3-yl)-2,6-dihydroxybenzamide], the EC50 was determined as 4.28 µM. Same read-out and setting: the same measure for `Cc1cc(Br)cc(C)c1NC(=O)N1Cc2ccccc2C1` [Example E99, N-(4-bromo-2,6-dimethylphenyl)isoindoline-2-carboxamide]: 0.93 µM.

`COc1ccc(NC(=O)N2CCc3ccccc3C2)c(OC)c1` [Example E113, N-(2,4-dimethoxyphenyl)-3,4-dihydroisoquinoline-2(1H)-carboxamide]: the EC50 was 4.44 µM. Same read-out and setting: then `COc1cccc(C(=O)NC2CCC(C)CC2)c1O` (centres unmarked) [Example E72, 2-hydroxy-3-methoxy-N-(4-methylcyclohexyl)benzamide], with 3.35 µM; and `CC1CCCCC1NC(=O)c1cccc(OC(F)(F)F)c1` (centres unmarked) [Example E29, N-(2-methylcyclohexyl)-3-(trifluoromethoxy)benzamide], with 0.42 µM. Still for that read-out and setting: the same measure for `O=C(NC1CCCc2ccccc21)c1c(Cl)cccc1Cl` (centres unmarked) [Example E15, 2,6-dichloro-N-(1,2,3,4-tetrahydronaphthalen-1-yl)benzamide]: 3.02 µM; for `COc1c(Cl)ccc(Cl)c1C(=O)NC1CCCc2ccccc21` (centres unmarked) [Example E16, 3,6-dichloro-2-methoxy-N-(1,2,3,4-tetrahydronaphthalen-1-yl)benzamide]: 3.04 µM; for `Cc1c(F)c(F)c(C(=O)NC2CCCCC2)c(F)c1F` [Example E45, N-cyclohexyl-2,3,5,6-tetrafluoro-4-methylbenzamide]: 1.13 µM. On the same count and under the same terms, then `CC1CCCCC1NC(=O)c1c(Cl)cccc1Cl` (centres unmarked) [Example E39, 2,6-dichloro-N-(2-methylcyclohexyl)benzamide], with 0.91 µM; and `Cc1cc([N+](=O)[O-])ccc1NC(=O)N1Cc2ccccc2C1` [Example E100, N-(2-methyl-4-nitrophenyl)isoindoline-2-carboxamide], with 1.3 µM; and `Cc1c(F)c(F)c(C(=O)NC2CCCCCCC2)c(F)c1F` [Example E46, N-cyclooctyl-2,3,5,6-tetrafluoro-4-methylbenzamide], with 1.25 µM.

Turning to `CC1CCCC(NC(=O)c2cncc(Br)c2)C1C` (centres unmarked) [Example E55, 5-bromo-N-(2,3-dimethylcyclohexyl)mcotmamide], the EC50 amounted to 1.89 µM. The same measure, in the same setting: then `CC1CCCCC1NC(=O)c1cc(Cl)ccc1Cl` (centres unmarked) [Example E33, 2,5-dichloro-N-(2-methylcyclohexyl)benzamide], with 0.63 µM. With `CC1CCCCC1NC(=O)c1ccc(Cl)c(Cl)c1` (centres unmarked) [Example E54, 3,4-dichloro-N-(2-methylcyclohexyl)benzamide], the EC50 came to 1.83 µM. `CC1CCCCC1NC(=O)c1cc(F)cc(Cl)c1` (centres unmarked) [Example E30, 3-chloro-5-fluoro-N-(2-methylcyclohexyl)benzamide]: the EC50 is 0.45 µM. On the same count and under the same terms, the same measure for `COc1ccc(NC(=O)N2Cc3cccc(C)c3C2)c(C)c1` [Example E116, N-(4-methoxy-2-methylphenyl)-4-methylisomdoline-2-carboxamide]: 0.71 µM; for `O=C(Nc1ccccc1Cl)N1Cc2ccccc2C1` [Example E106, N-(2-chlorophenyl)isoindoline-2-carboxamide]: 3.85 µM. On the same count and under the same terms, the same measure for `Cc1c(Cl)cccc1NC(=O)N1CCc2ccccc2C1` [Example E112, N-(3-chloro-2-methylphenyl)-3,4-dihydroisoguinoline-2(1H)-carboxamide]: 4.33 µM. Still for that read-out and setting: then `CC1CCCC(NC(=O)c2ccnc(Cl)c2)C1C` (centres unmarked) [Example E44, 2-chloro-N-(2,3-dimethylcyclohexyl)isonicotinamide], with 1.08 µM; and `CC1CCCCC1NC(=O)c1ccc2nonc2c1` (centres unmarked) [Example E71], with 3.33 µM; and `CC1CCc2ccccc2C1NC(=O)c1cccc(Cl)c1O` (centres unmarked) [Example E1, 3-chloro-2-hydroxy-N-(2-methyl-1,2,3,4-tetrahydronaphthalen-1-yl)benzamide], with 0.19 µM. Take `COc1cccc2c1CCCC2NC(=O)c1cccc(C(C)C)c1O` (centres unmarked) [Example E124]: the EC50 was determined as 2.64 µM. In the case of `O=C(N[C@@H]1CCCc2ccccc21)c1cccc(O)c1O` [Example E17, (R)-2,3-dihydroxy-N-(1,2,3,4-tetrahydronaphthalen-1-yl)benzamide], the EC50 came out at 3.13 µM.

With `CCCc1nocc1C(=O)N[C@@H]1CCCc2c(C)cc(C)cc21` [Example E125, (R)-N-(5,7-dimethyl-1,2,3,4-tetrahydronaphthalen-1-yl)-3-propylisoxazole-4-carboxamide], the EC50 amounted to 0.62 µM.

The same assay, now with this note: read-out: EC50 for activation of a hT1R2/hT1R3 sweet receptor expressed in an HEK293 cell line.
As for `COc1cc(F)c(NC(=O)N2Cc3cccc(C)c3C2)c(F)c1` [Example 195, N-(2,6-difluoro-4-methoxyphenyl)-4-methylisoindoline-2-carboxamide], the EC50 is 0.067 µM. Consider `CCCOc1cc(C)c(C(=O)NC2CCCCC2C)c(C)c1` (centres unmarked) [Example 201, 2,6-dimethyl-N-(2-methylcyclohexyl)-4-propoxybenzamide], for which the EC50 was determined as 0.69 µM.

Take `O=C(N[C@@H]1CCOc2ccccc21)c1cccc(Cl)c1O` [Example 185, (R)-3-Chloro-N-(3,4-dihydro-2H-chromen-4-yl)-2-hydroxybenzamide]: the EC50 turned out to be 1.03 µM.

Turning to `Cc1cc(Cl)ccc1NC(=O)N1Cc2ccccc2C1` [Example 172, N-(4-chloro-2-methylphenyl)isoindoline-2-carboxamide], the EC50 stood at 0.89 µM.
